Experimental data from patent publication US20140121216A1, “INDOLEAMINE DERIVATIVES FOR THE TREATMENT OF CENTRAL NERVOUS SYSTEM DISEASES” (Adamed Sp. z o.o., priority 2011, published 2014).

Legend:
male Wistar rats [1] = assay: Conflict test (Vogel test) in rats; format: in vivo
Experimental: (§1) Drug-naive male Wistar rats (Charles River, Sulzfeld, Germany) weighing 250-400 g were housed in polycarbonate Makrolon cages (380×200×590 mm) in an environmentally controlled, experimental room (ambient temperature 21-23° C.; relative humidity 50-60%; 12:12 light:dark cycle, lights on at 7:00 a.m.), in groups of 4. Tap water and standard lab chow (Labofeed H, WPIK, Kcynia, Poland) was available ad libitum.
(§2) The animals were delivered to the Animal Research Unit of the Department of Pharmacology, Institute of Psychiatry and Neurology, 2 weeks before the start of experimental procedures. During these 2 weeks all the rats were repeatedly getting used to the presence of the experimenter (handling), and to injections of saline.
On the day before experiments rats were weighted exact to 1 g. Animals were assigned randomly to treatment groups. All the experiments were performed on separate groups of animals, between 9:00 and 15:00. Tested compound was administered intraperitoneally (i.p.) in an injection volume of 2 ml/kg in at least 3 selected doses. Control groups received an appropriate vehiculum. […]
The test was performed by modified method described by Vogel et al. (Psychopharmacologia, 21 (1), 8-12, 1971) using the monitoring system TSE Systems. […] The number of licks and the number of shocks received throughout a 5-min experimental session were recorded automatically.

male Wistar rats [2] = assay: Reversal of the dizocilpine (MK-801)-induced PPI deficits in rats; format: in vivo
Experimental: as §1, §2
On the day before experiments rats were weighted exact to 1 g. Animals were assigned randomly to treatment groups. All the experiments were performed on separate groups of animals, between 9:00 and 15:00. […]
The PPI apparatus consisted of eight acoustic startle chambers (SR-LAB, San Diego Instruments, San Diego, Calif., USA). […] Startle responses, reflecting the motion of animals in the cylinder following the acoustic stimulus, were detected by a piezoelectric transducer mounted below the frame. […]
The average inter-trial interval was 22.5 s (range: 15-30 s). […] Startle responses were measured for 100 ms after the onset of the last trial stimulus. […]

[3] = target: 5-HT2A receptor, human recombinant (Homo sapiens, UniProt P28223); assay: Binding assay, 5-HT2A receptor ([3H]ketanserin)
Chain of 5-HT2A receptor, human recombinant (P28223 whole entry, looked up): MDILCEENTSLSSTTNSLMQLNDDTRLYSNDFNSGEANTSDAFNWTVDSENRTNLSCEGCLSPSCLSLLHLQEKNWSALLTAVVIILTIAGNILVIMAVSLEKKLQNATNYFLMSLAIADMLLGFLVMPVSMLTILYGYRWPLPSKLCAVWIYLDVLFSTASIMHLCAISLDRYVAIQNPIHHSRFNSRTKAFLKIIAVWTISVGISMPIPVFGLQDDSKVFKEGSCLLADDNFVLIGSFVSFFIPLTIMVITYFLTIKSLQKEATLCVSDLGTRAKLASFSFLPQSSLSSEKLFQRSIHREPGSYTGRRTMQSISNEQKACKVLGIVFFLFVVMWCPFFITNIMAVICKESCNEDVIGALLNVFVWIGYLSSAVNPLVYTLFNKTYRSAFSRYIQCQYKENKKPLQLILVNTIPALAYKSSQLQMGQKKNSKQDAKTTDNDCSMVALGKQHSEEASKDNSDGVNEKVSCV
Experimental: Moreover, ability of the compounds of the invention to block potassium channel hERG was tested.
The specific ligand binding to the receptors is defined as the difference between the total binding and the non-specific binding determined in the presence of an excess of unlabelled ligand.
The inhibition constants (Ki) were calculated using the Cheng Prusoff equation (Ki=IC50/(1+(L/KD)), where L=concentration of radioligand in the assay, and KD=affinity of the radioligand for the receptor). A Scatchard plot is used to determine the Kd. The IC50 values (concentration causing a half-maximal inhibition of control specific binding) and Hill coefficients (nH) were determined by non-linear regression analysis of the competition curves generated with mean replicate values using Hill equation curve fitting (Y=D+[(A−D)/(1+(C/C50)^nH)], where Y=specific binding, D=minimum specific binding, A=maximum specific binding, C=compound concentration, C50=IC50, and nH=slope factor).

SMILES | activity in words, conflict drinking test (Vogel) (male Wistar rats [1]) | MED (minimum effective dose), conflict test (Vogel test) (male Wistar rats [1]; i.p.) [mg/kg] | activity in words, dizocilpine (MK-801)-induced PPI deficit test (male Wistar rats [2]) | MED (minimum effective dose), reversal of dizocilpine (MK-801)-induced PPI deficits (male Wistar rats [2]; i.p., 60 min. before the test) [mg/kg] | Ki [3] [nM]
O=C1CCc2ccc(OCCCCN3CCN(c4cccc5c4ccn5S(=O)(=O)c4ccccc4)CC3)cc2N1 [Compound 24, 7-(4-(4-(1-(Phenylsulphonyl)-1H-indol-4-yl)piperazin-1-yl)butoxy)-3,4-dihydroquinolin-2(1H)-one] | active | 3 | active | 10 | 
O=C1CCc2ccc(OCCCCN3CCN(c4cccc5c4ccn5Cc4cccc(Cl)c4)CC3)cc2N1 [Compound 67, 7-[4-[4-[1-[(3-Chlorophenyl)methyl]indol-4-yl]piperazin-1-yl]butoxy]-3,4-dihydro-1H-quinolin-2-one] |  |  |  |  | 2.4
